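Compound exposure: 48 hours, 5 concentrations, 96-well plates. Here, GI50 denotes the concentration required for 50% inhibition of growth. At the TGI there is no net growth.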
Tests used:
Experiment in all cases: NCI-60 cell line screen, 48 h
[1] = system: SF-268 CNS
[2] = system: 786-0 renal
[3] = system: LOX IMVI melanoma
[4] = system: NCI/ADR-RES ovarian
[5] = system: HOP-62 NSCLC
[6] = system: MALME-3M melanoma
[7] = system: OVCAR-3 ovarian
[8] = system: NCI-H23 lung
[9] = system: HS 578T breast
[10] = system: RXF 393 renal
[11] = system: HCT-116 colon
[12] = system: SK-MEL-2 melanoma
[13] = system: M14 melanoma
[14] = system: UACC-257 melanoma
[15] = system: NCI-H522 lung
[16] = system: CCRF-CEM leukemia
[17] = system: HOP-92 NSCLC
[18] = system: SW-620 colon
[19] = system: MCF7 breast
[20] = system: RPMI-8226 leukemia
[21] = system: UACC-62 melanoma
[22] = system: A549 NSCLC
[23] = system: A498 renal
[24] = system: SK-OV-3 ovarian
[25] = system: BT-549 breast
[26] = system: U251 CNS
[27] = system: EKVX NSCLC
[28] = system: UO-31 renal
[29] = system: CAKI-1 renal
[30] = system: IGROV1 ovarian
[31] = system: HCT-15 colon
[32] = system: HT29 colon
[33] = system: COLO 205 colon
[34] = system: HCC-2998 colon
[35] = system: SF-295 CNS
[36] = system: MDA-MB-231 breast
[37] = system: SF-539 CNS
[38] = system: KM12 colon
[39] = system: SR leukemia
[40] = system: OVCAR-5 ovarian
[41] = system: HL-60(TB) leukemia
[42] = system: T-47D breast
[43] = system: NCI-H460 lung
[44] = system: MDA-MB-468 breast
[45] = system: ACHN renal
[46] = system: OVCAR-8 ovarian
[47] = system: SK-MEL-5 melanoma
[48] = system: SNB-19 CNS
[49] = system: TK-10 renal
[50] = system: NCI-H226 lung
[51] = system: MOLT-4 leukemia
[52] = system: PC-3 prostate
[53] = system: K-562 leukemia
[54] = system: SK-MEL-28 melanoma
[55] = system: OVCAR-4 ovarian
[56] = system: DU-145 prostate
[57] = system: SN12C renal
[58] = system: MDA-MB-435
[59] = system: SNB-75 CNS

COc1ccc(CN2[C@H](C(=O)NCCCCCCC(=O)NO)Cc3c([nH]c4ccccc34)[C@H]2C2CC2)cc1
GI50 [1]: 2870 nM
TGI [1]: > 13700 nM
GI50 [2]: 3390 nM
TGI [2]: > 20000 nM
GI50 [3]: 1310 nM
TGI [3]: 3590 nM
GI50 [4]: 5420 nM
TGI [4]: > 20000 nM
GI50 [5]: 2160 nM
TGI [5]: > 10600 nM
GI50 [6]: 946 nM
TGI [6]: 3840 nM
GI50 [7]: 1890 nM
TGI [7]: 8380 nM
GI50 [8]: 1880 nM
TGI [8]: 8190 nM
GI50 [9]: 1650 nM
TGI [9]: 10700 nM
GI50 [10]: 898 nM
TGI [10]: 2450 nM
GI50 [11]: 1160 nM
TGI [11]: > 13300 nM
GI50 [12]: 998 nM
TGI [12]: 18100 nM
GI50 [13]: 2020 nM
TGI [13]: > 20000 nM
GI50 [14]: 1760 nM
TGI [14]: > 9720 nM
GI50 [15]: 1330 nM
TGI [15]: 5210 nM
GI50 [16]: 1250 nM
TGI [16]: > 20000 nM
GI50 [17]: 1290 nM
TGI [17]: 4380 nM
GI50 [18]: 1150 nM
TGI [18]: 3530 nM
GI50 [19]: 1800 nM
TGI [19]: > 16100 nM
GI50 [20]: 1870 nM
TGI [20]: > 20000 nM
GI50 [21]: 1010 nM
TGI [21]: 2560 nM
GI50 [22]: 2150 nM
TGI [22]: > 13000 nM
GI50 [23]: 1130 nM
TGI [23]: 4200 nM
GI50 [24]: 1170 nM
TGI [24]: 3280 nM
GI50 [25]: 5340 nM
TGI [25]: > 19100 nM
GI50 [26]: 1810 nM
TGI [26]: 7260 nM
GI50 [27]: 2250 nM
TGI [27]: > 20000 nM
GI50 [28]: 2280 nM
TGI [28]: 9500 nM
GI50 [29]: 1480 nM
TGI [29]: 7560 nM
GI50 [30]: 1410 nM
TGI [30]: 4690 nM
GI50 [31]: 4340 nM
TGI [31]: > 16500 nM
GI50 [32]: 1350 nM
TGI [32]: 10600 nM
GI50 [33]: 1630 nM
TGI [33]: 4870 nM
GI50 [34]: 1610 nM
TGI [34]: 4550 nM
GI50 [35]: 1420 nM
TGI [35]: 4330 nM
GI50 [36]: 1410 nM
TGI [36]: 4200 nM
GI50 [37]: 1820 nM
TGI [37]: 8740 nM
GI50 [38]: 2140 nM
TGI [38]: > 14200 nM
GI50 [39]: 1120 nM
TGI [39]: > 20000 nM
GI50 [40]: 1090 nM
TGI [40]: 3180 nM
GI50 [41]: 2120 nM
TGI [41]: > 20000 nM
GI50 [42]: 1520 nM
TGI [42]: 4710 nM
GI50 [43]: 1780 nM
TGI [43]: > 20000 nM
GI50 [44]: 1020 nM
TGI [44]: > 5340 nM
GI50 [45]: 1720 nM
TGI [45]: 6110 nM
GI50 [46]: 1950 nM
TGI [46]: > 10200 nM
GI50 [47]: 1250 nM
TGI [47]: 2970 nM
GI50 [48]: 2110 nM
TGI [48]: 12500 nM
GI50 [49]: 1390 nM
TGI [49]: 7360 nM
GI50 [50]: 2900 nM
TGI [50]: > 16500 nM
GI50 [51]: 1960 nM
TGI [51]: > 20000 nM
GI50 [52]: 1880 nM
TGI [52]: > 20000 nM
GI50 [53]: 1860 nM
TGI [53]: > 20000 nM
GI50 [54]: 1660 nM
TGI [54]: 6850 nM
GI50 [55]: 5240 nM
TGI [55]: > 20000 nM
GI50 [56]: 2120 nM
TGI [56]: > 20000 nM
GI50 [57]: 2190 nM
TGI [57]: 8580 nM
GI50 [58]: 1160 nM
TGI [58]: 3490 nM
GI50 [59]: 397 nM
TGI [59]: > 5950 nM

Reference: PubChem BioAssay (NCI)
